Test results reported in patent publication US20060211705A1, “'N-(2-chloro-6-methylphenyl)-2-[[6-[4-(2-hydroxyethyl)-1-piperazinyl]-2-methyl-4-pyrimidinyl]amino]-5-thiazolecarboxamides metabolites” (priority 2005, published 2006).

How the values were obtained:
[1] = Radioactive metabolites in plasma, urine and feces after single oral dose of [14C] compound (I) to rats; assay type: in vivo, Sprague-Dawley rat; settings: for % Distribution of radioactive metabolites in pooled plasma, Rat (4 h): oral 15 mg/kg [14C] compound (I), plasma 4 h; for Metabolites in Feces (0-168 hr), Rat, % Dose / Metabolites in Feces (0-168 hr), Rat, % Rad (% of total radioactivity in sample) / Metabolites in Urine (0-168 hr), Rat, % Dose / Metabolites in Urine (0-168 hr), Rat, % Rad (% of total radioactivity in sample): oral 15 mg/kg; for Metabolites in Feces (0-168 hr), Rat, % Dose / Metabolites in Feces (0-168 hr), Rat, % Rad (% of total radioactivity in sample): pooled fecal extracts 0-168 hr; for Metabolites in Urine (0-168 hr), Rat, % Dose / Metabolites in Urine (0-168 hr), Rat, % Rad (% of total radioactivity in sample): pooled urine 0-168 hr
Description: (§1) Plasma samples were segregated by collection time and equal volumes of individual plasma samples at a given time point were combined for biotransformation profiling.
(§2) The C-14 label was on the carbon-2 of the thiazole ring.
(§3) HPLC was performed on an Agilent 1100™ system equipped with binary pumps, autoinjector, and a column heater. A Phenomenex Synergy Polar-RP® column (4.6×250 mm, 5 micron) was used for metabolite separation. All HPLC analyses were performed at 1 mL/min flow rate at 35° C. The HPLC mobile phase consisted of (A) water with 0.1% formic acid and (B) acetonitrile with 0.1% formic acid.
(§4) Each fraction of column eluent was evaporated to dryness on a Savant Speed-Vac (Savant Instruments Inc., Holbrook, N.Y.) and counted for radioactivity with a Packard Top Count® microplate scintillation analyzer (Packard Biosciences, Downers Grove, Ill.).
(§5) The volumes of pooled plasma processed for HPLC analysis for rat, monkey and human ranged between 1.5 and 8.0 mL. Pooled plasma samples were extracted with methanol/acetonitrile (1:1) at a ratio of 2 volumes solvent to 1 volume of plasma. The mixtures were vortex mixed, sonicated for 5 min, and centrifuged at 3500 rpm for 10 min. The supernatants were transferred into new tubes. The remaining pellets were extracted two more times with 3 mL of methanol/acetonitrile (1:1). The supernatants were combined and evaporated to dryness in a Savant Speed-Vac (Savant Instruments, Inc., Holbrook, N.Y.). The residue was reconstituted into 0.35 to 0.45 mL of 30% acetonitrile in water, vortex mixed and centrifuged at 13000 rpm for 5 min (American Scientific Products Biofuge A centrifuge, Heraeus Sepatech GmbH, Germany). The supernatant was injected onto the HPLC for profiling. Aliquots of the reconstituted samples (30 μl) were also counted on the liquid scintillation counter (LSC) to determine the recovery of radioactivity.
(§6) The pooled monkey and human urine samples (3-5 mL) were extracted with 2 volumes of acetonitrile/acetone (1:1). The mixtures were vortex mixed, sonicated and centrifuged at 3500 rpm for 10 min. The supernatants were evaporated to dryness. The residue was suspended in 0.3-0.5 mL of 30% acetonitrile in water and centrifuged at 13000 rpm for 5 min. Aliquots of the supernatants were injected onto the HPLC or analyzed by LSC for radioactivity recovery. Pooled urine samples from BDC monkeys and rats were centrifuged at 13000 rpm for 10 min and injected onto the HPLC for profiling without further treatment.
(§7) The amount of fecal homogenate used for analysis was 0.20, 0.19 and 0.51 g for rat, monkey and human, respectively. Each pooled fecal homogenate was extracted by addition of 3 volumes of acetonitrile/methanol (1:1) to 1 volume of fecal homogenate and mixed on a vortex mixer. The mixture was sonicated for 5 min and then centrifuged at 3000 rpm for 10 min. The supernatants were removed and saved. The extraction was repeated two additional times and the supernatants were combined and evaporated to dryness on a Savant Speed-Vac. […] An aliquot of the supernatant was injected onto the HPLC or analyzed by LSC for radioactivity recovery.
(§8) The LC/MS system used for analysis of plasma, urine, bile, and fecal samples consisted of an Agilent 1100™ HPLC system connected to a Finnigan LCQ-DecaXP mass spectrometer. Samples were analyzed using positive electrospray ionization. The capillary temperature used for analysis was 320° C., and the nitrogen gas flow rate, spray current, and voltages were adjusted to give maximum sensitivity. The HPLC conditions were described in section 3.3.1.
Counts per min (CPM) were determined on a Packard TopCount NXT microplate scintillation and luminescence counter. For each injection, the average CPM value (2-4 CPM) obtained from fractions between 2-3 min (column void) in the chromatogram was subtracted from the CPM value of each fraction. Biotransformation profiles were prepared by plotting the background subtracted CPM values against time-after-injection.

[2] = Radioactive metabolites in urine and bile after IV administration of [14C] compound (I) to bile-duct cannulated monkeys; assay type: in vivo, monkey; settings: IV infusion 2 mg/kg; for Metabolites in BDC-Monkeys (0-72 hr), Bile, % Dose / Metabolites in BDC-Monkeys (0-72 hr), Bile, % Rad: bile 0-72 hr; for Metabolites in BDC-Monkeys (0-72 hr), Urine, % Dose / Metabolites in BDC-Monkeys (0-72 hr), Urine, % Rad (% of total radioactivity in sample): urine 0-72 hr
Description: A separate bile-duct cannulated (BDC) monkey study was also conducted. […]
as §2, §3, §4, §6
A pooled bile sample (0-72 h) from BDC monkeys was diluted fifteen-fold with 20% acetonitrile in water with 0.1% formic acid. The diluted sample was centrifuged at 13000 rpm for 5 min. Aliquots of the supernatant was injected onto HPLC or analyzed by LSC for radioactivity recovery.
as §8
Counts per min (CPM) were determined on a Packard TopCount NXT microplate scintillation and luminescence counter. For each injection, the average CPM value (2-4 CPM) obtained from fractions between 2-3 min (column void) in the chromatogram was subtracted from the CPM value of each fraction. Biotransformation profiles were prepared by plotting the background subtracted CPM values against time-after-injection. Radioactivity peaks in the biotransformation profiles were reported as a percentage of the total radioactivity (after background subtraction) collected during the entire HPLC run.

[3] = Radioactive metabolites in plasma, urine and feces after single oral dose of [14C] compound (I) to monkeys; assay type: in vivo, cynomolgus monkey; settings: for % Distribution of radioactive metabolites in pooled plasma, Monkey (4 h): oral 10 mg/kg [14C] compound (I), plasma 4 h; for Metabolites in Feces (0-168 hr), Monkey, % Dose / Metabolites in Feces (0-168 hr), Monkey, % Rad / Metabolites in Urine (0-168 hr), Monkey, % Dose / Metabolites in Urine (0-168 hr), Monkey, % Rad: oral 10 mg/kg; for Metabolites in Feces (0-168 hr), Monkey, % Dose / Metabolites in Feces (0-168 hr), Monkey, % Rad: pooled fecal extracts 0-168 hr; for Metabolites in Urine (0-168 hr), Monkey, % Dose / Metabolites in Urine (0-168 hr), Monkey, % Rad: pooled urine 0-168 hr
Description: A separate bile-duct cannulated (BDC) monkey study was also conducted.
as §1, §2, §3, §4, §5, §6, §7, §8
Counts per min (CPM) were determined on a Packard TopCount NXT microplate scintillation and luminescence counter. For each injection, the average CPM value (2-4 CPM) obtained from fractions between 2-3 min (column void) in the chromatogram was subtracted from the CPM value of each fraction.

## Cc1nc(Nc2ncc(C(=O)Nc3c(C)cccc3Cl)s2)cc(N2CCN(CCO)CC2)n1 [Parent (I), N-(2-Chloro-6-methylphenyl)-2-[[6-[4-(2-hydroxyethyl)-1-piperazinyl]-2-methyl-4-pyrimidinyl]amino]-5-thiazolecarboxamide]
[1]
  % Distribution of radioactive metabolites in pooled plasma, Rat (4 h): 52.8%
  Metabolites in Feces (0-168 hr), Rat, % Dose: 41.6%
  Metabolites in Feces (0-168 hr), Rat, % Rad (% of total radioactivity in sample): 54.5%
  Metabolites in Urine (0-168 hr), Rat, % Dose: 0.7%
  Metabolites in Urine (0-168 hr), Rat, % Rad (% of total radioactivity in sample): 11.6%
[2]
  Metabolites in BDC-Monkeys (0-72 hr), Bile, % Dose: 3.2%
  Metabolites in BDC-Monkeys (0-72 hr), Bile, % Rad: 4.7%
  Metabolites in BDC-Monkeys (0-72 hr), Urine, % Dose: 0.1%
  Metabolites in BDC-Monkeys (0-72 hr), Urine, % Rad (% of total radioactivity in sample): 1.4%
[3]
  % Distribution of radioactive metabolites in pooled plasma, Monkey (4 h): 32.1%
  Metabolites in Feces (0-168 hr), Monkey, % Dose: 24.7%
  Metabolites in Feces (0-168 hr), Monkey, % Rad: 32.2%
  Metabolites in Urine (0-168 hr), Monkey, % Dose: 0.6%
  Metabolites in Urine (0-168 hr), Monkey, % Rad: 21.2%

## Cc1nc(Nc2ncc(C(=O)Nc3c(C)cccc3Cl)s2)cc(N2CCNCC2)n1 [M4 (II)]
[1]
  % Distribution of radioactive metabolites in pooled plasma, Rat (4 h): 2.6%
  Metabolites in Feces (0-168 hr), Rat, % Dose: 1.9%
  Metabolites in Feces (0-168 hr), Rat, % Rad (% of total radioactivity in sample): 2.5%
  Metabolites in Urine (0-168 hr), Rat, % Dose: 0.3%
  Metabolites in Urine (0-168 hr), Rat, % Rad (% of total radioactivity in sample): 4.4%
[2]
  Metabolites in BDC-Monkeys (0-72 hr), Bile, % Dose: 0.5%
  Metabolites in BDC-Monkeys (0-72 hr), Bile, % Rad: 0.7%
[3]
  % Distribution of radioactive metabolites in pooled plasma, Monkey (4 h): 3.0%
  Metabolites in Feces (0-168 hr), Monkey, % Dose: 2.9%
  Metabolites in Feces (0-168 hr), Monkey, % Rad: 3.8%
  Metabolites in Urine (0-168 hr), Monkey, % Dose: 0.05%
  Metabolites in Urine (0-168 hr), Monkey, % Rad: 1.7%

## Cc1nc(Nc2ncc(C(=O)Nc3c(C)cccc3Cl)s2)cc(N2CC[N+]([O-])(CCO)CC2)n1 [M5 (III)]
[1]
  % Distribution of radioactive metabolites in pooled plasma, Rat (4 h): 18.7%
  Metabolites in Urine (0-168 hr), Rat, % Dose: 3.4%
  Metabolites in Urine (0-168 hr), Rat, % Rad (% of total radioactivity in sample): 52.4%
[2]
  Metabolites in BDC-Monkeys (0-72 hr), Bile, % Dose: 5.0%
  Metabolites in BDC-Monkeys (0-72 hr), Bile, % Rad: 7.4%
  Metabolites in BDC-Monkeys (0-72 hr), Urine, % Dose: 7.0%
  Metabolites in BDC-Monkeys (0-72 hr), Urine, % Rad (% of total radioactivity in sample): 70.7%
[3]
  % Distribution of radioactive metabolites in pooled plasma, Monkey (4 h): 2.6%
  Metabolites in Urine (0-168 hr), Monkey, % Dose: 1.1%
  Metabolites in Urine (0-168 hr), Monkey, % Rad: 35.8%

## Cc1nc(Nc2ncc(C(=O)Nc3c(C)cccc3Cl)s2)cc(N2CCN(CC(=O)O)CC2)n1 [M6 (IV), 2-(4-(6-(5-((2-Chloro-6-methylphenyl)carbamoyl)thiazol-2-ylamino)-2-methylpyrimidin-4-yl)piperazin-1-yl)acetic acid]
[1]
  % Distribution of radioactive metabolites in pooled plasma, Rat (4 h): 2.2%
  Metabolites in Feces (0-168 hr), Rat, % Dose: 13.2%
  Metabolites in Feces (0-168 hr), Rat, % Rad (% of total radioactivity in sample): 17.3%
  Metabolites in Urine (0-168 hr), Rat, % Dose: 0.4%
  Metabolites in Urine (0-168 hr), Rat, % Rad (% of total radioactivity in sample): 6.5%
[2]
  Metabolites in BDC-Monkeys (0-72 hr), Bile, % Dose: 6.3%
  Metabolites in BDC-Monkeys (0-72 hr), Bile, % Rad: 9.4%
  Metabolites in BDC-Monkeys (0-72 hr), Urine, % Dose: 0.3%
  Metabolites in BDC-Monkeys (0-72 hr), Urine, % Rad (% of total radioactivity in sample): 2.8%
[3]
  % Distribution of radioactive metabolites in pooled plasma, Monkey (4 h): 2.7%
  Metabolites in Feces (0-168 hr), Monkey, % Dose: 14.0%
  Metabolites in Feces (0-168 hr), Monkey, % Rad: 18.2%
  Metabolites in Urine (0-168 hr), Monkey, % Dose: 0.06%
  Metabolites in Urine (0-168 hr), Monkey, % Rad: 2.2%

## Cc1nc(Nc2ncc(C(=O)Nc3c(C)cc(O)cc3Cl)s2)cc(N2CCN(CCO)CC2)n1 [M20 (V)]
[1]
  Metabolites in Feces (0-168 hr), Rat, % Dose: 7.6%
  Metabolites in Feces (0-168 hr), Rat, % Rad (% of total radioactivity in sample): 9.9%
  Metabolites in Urine (0-168 hr), Rat, % Dose: 0.6%
  Metabolites in Urine (0-168 hr), Rat, % Rad (% of total radioactivity in sample): 9.9%
[2]
  Metabolites in BDC-Monkeys (0-72 hr), Bile, % Dose: 2.4%
  Metabolites in BDC-Monkeys (0-72 hr), Bile, % Rad: 3.5%
  Metabolites in BDC-Monkeys (0-72 hr), Urine, % Dose: 0.3%
  Metabolites in BDC-Monkeys (0-72 hr), Urine, % Rad (% of total radioactivity in sample): 2.7%
[3]
  % Distribution of radioactive metabolites in pooled plasma, Monkey (4 h): 2.8%
  Metabolites in Feces (0-168 hr), Monkey, % Dose: 11.7%
  Metabolites in Feces (0-168 hr), Monkey, % Rad: 15.2%
  Metabolites in Urine (0-168 hr), Monkey, % Dose: 0.02%
  Metabolites in Urine (0-168 hr), Monkey, % Rad: 0.6%

## Cc1nc(Nc2ncc(C(=O)Nc3c(Cl)cccc3CO)s2)cc(N2CCN(CCO)CC2)n1 [M24 (VI), N-(2-chloro-6-(hydroxymethyl)phenyl)-2-(6-(4-(2-hydroxyethyl)piperazin-1-yl)-2-methylpyrimidin-4-ylamino)thiazole-5-carboxamide]
[1]
  Metabolites in Feces (0-168 hr), Rat, % Dose: 3.1%
  Metabolites in Feces (0-168 hr), Rat, % Rad (% of total radioactivity in sample): 4.0%
[2]
  Metabolites in BDC-Monkeys (0-72 hr), Bile, % Dose: 3.0%
  Metabolites in BDC-Monkeys (0-72 hr), Bile, % Rad: 4.4%
  Metabolites in BDC-Monkeys (0-72 hr), Urine, % Dose: 0.1%
  Metabolites in BDC-Monkeys (0-72 hr), Urine, % Rad (% of total radioactivity in sample): 1.4%
[3]
  % Distribution of radioactive metabolites in pooled plasma, Monkey (4 h): 0.7%
  Metabolites in Feces (0-168 hr), Monkey, % Dose: 6.6%
  Metabolites in Feces (0-168 hr), Monkey, % Rad: 8.6%
  Metabolites in Urine (0-168 hr), Monkey, % Dose: 0.06%
  Metabolites in Urine (0-168 hr), Monkey, % Rad: 1.9%
